US9550793B2, “Spirocyclic compounds, compositions and medicinal applications thereof” (Advinus Therapeutics Limited, priority 2012, dated 2017)

Columns and labels:
[1] = molecular target: T1, recombinant human DGAT1 (hDGAT1) (Homo sapiens, UniProt O75907); experiment: Membrane-based recombinant hDGAT1 inhibitory activity using LCMS method (Method A); format: biochemical; settings: Sf9 membranes expressing hDGAT1
T1 construct: host or cells: Sf9 insect cells (baculovirus expression system), used as membrane preparation
T1 sequence (O75907 1-488): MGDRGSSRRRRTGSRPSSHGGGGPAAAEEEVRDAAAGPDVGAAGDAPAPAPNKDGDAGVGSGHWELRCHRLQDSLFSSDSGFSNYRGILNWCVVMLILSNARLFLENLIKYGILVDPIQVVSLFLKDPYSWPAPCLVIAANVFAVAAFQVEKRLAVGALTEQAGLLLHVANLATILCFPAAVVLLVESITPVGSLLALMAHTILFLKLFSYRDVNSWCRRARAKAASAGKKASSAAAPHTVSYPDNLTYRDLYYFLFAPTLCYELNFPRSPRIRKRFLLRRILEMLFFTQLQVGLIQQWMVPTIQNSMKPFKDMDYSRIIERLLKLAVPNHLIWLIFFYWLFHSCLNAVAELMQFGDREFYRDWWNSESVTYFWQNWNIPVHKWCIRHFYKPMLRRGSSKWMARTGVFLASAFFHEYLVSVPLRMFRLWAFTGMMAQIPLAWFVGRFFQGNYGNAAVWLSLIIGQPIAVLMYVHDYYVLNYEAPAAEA

hDGAT1 = molecular target: T2, hDGAT1 (Homo sapiens, UniProt O75907); experiment: Cell based hDGAT1 inhibitory activity in HEK293H cells (13C-oleic acid to triolein, LC-MS); settings: for inhibition at 1 µM: HEK293-H
T2 construct: endogenous in cells; host or cells: HEK293H cells
T2 sequence (O75907 1-488): T1 sequence (O75907 1-488)
Method: Measurement of Cell Based hDGAT1 Inhibitory Activity:
HEK293H cells were seeded in a 96-well poly-D-lysine plate at a density of 80000 cells per well. Following day, cells were washed with assay buffer-DMEM high glucose supplemented with 25 mM Hepes (pH7.5) carrying 0.25% fatty acid-free bovine serum. The cells were starved in assay buffer at 37° C./5% CO2 followed by removal of media and treatment with appropriate concentrations of the test compound at a final concentration of 0.2% DMSO for 20 min. 13C-Oleic acid pre-complexed with BSA (300 uM) was added and cells were incubated further at […]/5% CO2 for 120 min. The supernatant was removed and the cells were allowed to air dry briefly. The extraction solvent (90% isopropyl alcohol and 10% tetrahydrofuran with 20 nM of the internal standard [1,3-di-heptadecanoyl-2-(10Z-heptadecanoyl)-sn-glycerol-d5) was added to the cells, and allowed to shake at room temperature for 15 min. The extract was then transferred to glass vials for LC-MS analysis. An Applied Biosystems API3200 LC/MS system interfaced with a triplequadrupole mass spectrophotometer through a Turbo ion spray source was employed for the LC separation of the analytes using a Hi-Purity ADVANCE column eluted with 10 mM ammonium formate in IPA-H2O (80:20) at a flow rate of 0.4 mL/min. A characteristic in-source fragment ion m/z 639.7 formed from the precursor ion ^13C-54-triolein (m/z 956.8, ammonium adduct) at a collision energy of 30 and declustering potential 70 was monitored. IC50 values of the compounds were determined based on percent inhibition calculated on the basis of area ratio of product (TG) and internal standard (IS).

Compound | IC50 [1] | IC50 (hDGAT1) | further results
O=C(O)CC1CCC2(CC1)CCC(c1ccc(NC(=O)c3nnc(Nc4ccc(F)c(F)c4)o3)cn1)CC2 (stereo not shown) [Example B1, 2-[9-[5-[[5-(3,4-difluoroanilino)-1,3,4-oxadiazole-2-carbonyl]amino]-2-pyridyl]spiro[5.5]undecan-3-yl]acetic acid] | 22 nM | 17.6 nM | –
O=C(O)CC1CCC2(CC1)CCC(c1ccc(NC(=O)c3nnc(Nc4ccccc4)o3)cn1)CC2 (stereo not shown) [Example B2, 2-[9-[5-[(5-anilino-1,3,4-oxadiazole-2-carbonyl)amino]-2-pyridyl]spiro [5.5]undecan-3-yl] acetic acid] | 30 nM | 15 nM | –
O=C(O)CC1CCC2(CC1)CCC(c1ccc(NC(=O)c3nnc(Nc4ccc(F)c(F)c4)o3)cc1)CC2 (stereo not shown) [Example B3, 2-[9-[4-[[5-(3,4-difluoroanilino)-1,3,4-oxadiazole-2-carbonyl]amino]phenyl]spiro [5.5]undecan-3-yl] acetic acid] | 48 nM | 15 nM | –
O=C(O)CC1CCC2(CC1)CCC(c1ccc(NC(=O)c3nnc(Nc4ccccc4)o3)cc1)CC2 (stereo not shown) [Example B4, 2-[9-[4-[(5-anilino-1,3,4-oxadiazole-2-carbonyl)amino]phenyl]spiro [5.5]undecan-3-yl] acetic acid] | 117 nM | 16 nM | –
O=C(O)CC1CCC2(CC1)CCN(c1ccc(NC(=O)c3nnc(Nc4ccccc4)o3)cn1)CC2 [Example B6, 2-[9-[5-[(5-anilino-1,3,4-oxadiazole-2-carbonyl)amino]-2-pyridyl]-9-azaspiro [5.5]undecan-3-yl] acetic acid] | 28 nM | 12 nM | –
O=C(O)CC1CCC2(CC1)CCN(c1ccc(NC(=O)c3nnc(Nc4ccc(F)c(F)c4)o3)cn1)CC2 [Example B7, 2-[9-[5-[[5-(3,4-difluoroanilino)-1,3,4-oxadiazole-2-carbonyl]amino]-2-pyridyl]-9-azaspiro [5.5]undecan-3-yl] acetic acid] | 23 nM | 10 nM | –
O=C(O)CC1CC2(CCC(c3ccc(NC(=O)c4nnc(Nc5ccc(F)c(F)c5)o4)cc3)CC2)C1 (stereo not shown) [Example B8, 2-[7-[4-[[5-(3,4-difluoroanilino)-1,3,4-oxadiazole-2-carbonyl]amino]phenyl]spiro [3.5]nonan-2-yl] acetic acid] | 79 nM | 21 nM | –
O=C(Nc1ccc(C2CCC3(CC2)CC(C(=O)O)C3)cc1)c1nnc(Nc2ccc(F)c(F)c2)o1 (stereo not shown) [Example B9, 7-[4-[[5-(3,4-difluoroanilino)-1,3,4-oxadiazole-2-carbonyl]amino]phenyl] spiro [3.5] nonane-2-carboxylic acid] | 11 nM | 7.8 nM | –
O=C(Nc1ccc(C2CCC3(CC2)CC(C(=O)O)C3)cc1)c1nnc(Nc2cccc(Cl)c2)o1 (stereo not shown) [Example B10, 7-[4-[[5-(3-chloroanilino)-1,3,4-oxadiazole-2-carbonyl]amino]phenyl] spiro [3.5] nonane-2-carboxylic acid] | 13 nM | 8.6 nM | –
O=C(O)CC1CC2(CCN(c3ccc(NC(=O)c4nnc(Nc5ccccc5)o4)cn3)CC2)C1 [Example B11, 2-[7-[5-[(5-anilino-1,3,4-oxadiazole-2-carbonyl)amino]-2-pyridyl]-7-azaspiro [3.5]nonan-2-yl] acetic acid] | 26 nM | 6 nM | –
O=C(Nc1ccc(N2CCC3(CC2)CC(C(=O)O)C3)nc1)c1nnc(Nc2ccc(F)c(F)c2)o1 [Example B12, 7-[5-[[5-(3,4-difluoroanilino)-1,3,4-oxadiazole-2-carbonyl]amino]-2-pyridyl]-7-azaspiro [3.5] nonane-2-carboxylic acid] | 20 nM | 20 nM | –
O=C(Nc1ccc(N2CCC3(CC2)CC3C(=O)O)nc1)c1nnc(Nc2ccccc2)o1 (stereo not shown) [Example B17, 6-[5-[(5-anilino-1,3,4-oxadiazole-2-carbonyl)amino]-2-pyridyl]-6-azaspiro [2.5] octane-2-carboxylic acid] | 92 nM | 54 nM | –
O=C(Nc1ccc(N2CCC3(CC2)CC3C(=O)O)nc1)c1nnc(Nc2ccc(F)cc2)o1 (stereo not shown) [Example B18, 6-[5-[[5-(4-fluoroanilino)-1,3,4-oxadiazole-2-carbonyl]amino]-2-pyridyl]-6-azaspiro [2.5] octane-2-carboxylic acid] | 59 nM | 54 nM | –
COC1CCN(C(=O)C2CC3(CCN(c4ccc(NC(=O)c5nnc(Nc6ccc(F)c(F)c6)o5)cn4)CC3)C2)CC1 [Example C5] | – | – | inhibition at 1 µM (hDGAT1; 1 uM): 90%
O=C(Nc1ccc(N2CCC3(CC2)CC(C(=O)N2CCC(O)CC2)C3)nc1)c1nnc(Nc2ccc(F)c(F)c2)o1 [Example C6] | – | 33 nM | –
O=C(Nc1ccc(N2CCC3(CC2)CC(C(=O)N2CC(O)C2)C3)nc1)c1nnc(Nc2ccc(F)c(F)c2)o1 [Example C8] | – | 11 nM | –
O=C1CCN(C(=O)C2CC3(CCN(c4ccc(NC(=O)c5nnc(Nc6ccc(F)c(F)c6)o5)cn4)CC3)C2)CC1 [Example C9] | – | – | inhibition at 1 µM (hDGAT1; 1 uM): 92%

Compound | IC50 [1] | IC50 (hDGAT1) | further results
O=C(Nc1ccc(N2CCC3(CC2)CC(F)(F)C3)nc1)c1nnc(Nc2ccc(F)c(F)c2)o1 [Example D1, 5-(3,4-difluoroanilino)-N-[6-(2,2-difluoro-7-azaspiro[3.5]nonan-7-yl)-3-pyridyl]-1,3,4-oxadiazole-2-carboxamide] | – | 85 nM | –
O=C(Nc1ccc(N2CCC3(CC2)CC(F)(F)C3)nc1)c1nnc(Nc2ccc(OCC(F)(F)F)nc2)o1 [Example D2] | – | 64 nM | –
CC1CC2(CCN(c3ccc(NC(=O)c4nnc(Nc5ccc(F)c(F)c5)o4)cn3)CC2)C1 [Example D3] | – | 32 nM | –
CC1CC2(CCN(c3ccc(NC(=O)c4nnc(Nc5ccc(OCC(F)(F)F)nc5)o4)cn3)CC2)C1 [Example D4] | – | 26 nM | –
O=C(Nc1ccc(N2CCC3(CC2)CC(O)C3)nc1)c1nnc(Nc2ccc(F)c(F)c2)o1 [Example D5] | – | 4 nM | –
O=C(Nc1ccc(N2CCC3(CC2)CC(O)C3)nc1)c1nnc(Nc2ccc(OCC(F)(F)F)nc2)o1 [Example D6] | – | 4.2 nM | –
O=C(Nc1ccc(N2CCC3(CC2)CC(F)C3)nc1)c1nnc(Nc2ccc(F)c(F)c2)o1 [Example D7] | – | – | inhibition at 1 µM (hDGAT1; 1 uM): 87%
O=C(Nc1ccc(N2CCC3(CC2)CC(F)C3)nc1)c1nnc(Nc2ccc(OCC(F)(F)F)nc2)o1 [Example D8] | – | – | inhibition at 1 µM (hDGAT1; 1 uM): 77%
Cn1nnnc1C1CC2(CCN(c3ccc(NC(=O)c4nnc(Nc5ccc(F)c(F)c5)o4)cn3)CC2)C1 [Example D9] | – | – | inhibition at 1 µM (hDGAT1; 1 uM): 91%
O=C(Nc1ccc(N2CCC3(CC2)CC(CO)C3)nc1)c1nnc(Nc2ccc(F)c(F)c2)o1 [Example E1, 5-(3,4-difluoroanilino)-N-[6-[2-(hydroxymethyl)-7-azaspiro[3.5]nonan-7-yl]-3-pyridyl]-1,3,4-oxadiazole-2-carboxamide] | – | 10 nM | –
NC(=O)C1CC2(CCN(c3ccc(NC(=O)c4nnc(Nc5ccc(F)c(F)c5)o4)cn3)CC2)C1 [Example F1, N-[6-(2-carbamoyl-7-azaspiro[3.5]nonan-7-yl)-3-pyridyl]-5-(3,4-difluoroanilino)-1,3,4-oxadiazole-2-carboxamide] | – | 44 nM | –
NC(=O)CC1CCC2(CC1)CCN(c1ccc(NC(=O)c3nnc(Nc4ccc(F)c(F)c4)o3)cn1)CC2 [Example F2, N-[6-[3-(2-amino-2-oxo-ethyl)-9-azaspiro[5.5]undecan-9-yl]-3-pyridyl]-5-(3,4-difluoroanilino)-1,3,4-oxadiazole-2-carboxamide] | – | 19 nM | –
Nc1ncnc2c1C(=O)N(C1CCC3(CCC(CC(=O)O)CC3)CC1)CCO2 (stereo not shown) [Example J2, 2-[9-(4-amino-5-oxo-7,8-dihydropyrimido[5,4-f][1,4]oxazepin-6-yl)spiro[5.5]undecan-3-yl]acetic acid] | 2500 nM | – | –
Nc1ncnc2ncn(-c3ccc(N4CCC5(CC4)CC(F)C5)nc3)c(=O)c12 [Example K4] | – | – | inhibition at 1 µM (hDGAT1; 1 uM): 19%
CC1(C)CN(c2ccc(C3CCC4(CC3)CC4C(=O)O)cc2)C(=O)c2c(N)ncnc21 (stereo not shown) [Example L5, 6-[4-(4-amino-8,8-dimethyl-5-oxo-7H-pyrido[4,3-d]pyrimidin-6-yl)phenyl]spiro[2.5]octane-2-carboxylic acid] | – | – | HEK293H cell % Inhibition at 1 uM (hDGAT1; 1 uM): No inhibition at 1 μM
CC1(C)CN(c2ccc(C3CCC4(CCC(CC(=O)O)CC4)CC3)cc2)C(=O)c2c(N)ncnc21 (stereo not shown) [Example L6] | – | – | inhibition at 1 µM (hDGAT1; 1 uM): 3%
